The test system of one assay is guinea pig ileon. Put plainly: Relaxant activity on the guinea pig ileon. As to conditions: Cavia porcellus, Tyrode 37° C, concentration suppressing spontaneous contractions and relaxing the organ, read-out: Relaxant action. How it is done: B. Relaxant Activity on the guinea pig ileon
The relaxant effect of the test compounds was determined on guinea pig ileon using the procedure of Test A above. The terminal portion of the guinea pig ileon was removed and washed with Tyrode solution at 37° C. It was then suspended in an bath of oxygenated Tyrode liquid at 37° C and the contractions were registered on a collector attached to a Sanborn polygraph. The test product was added to bath of the organ with a low volume and the concentration which caused a suppression of spontaneous contractions and relaxed the organ, cuasing a lowering of the line of the base was considered to be relaxant.

The test system of the next assay is prostaglandin E2. Put plainly: Antagonistic activity to the contracturant effect of prostaglandin E2 (isolated rat colon, method of Magnus). As to conditions: Krebs 37° C, product added 30 seconds before PGE2 (5 to 10 ng/ml), 50% inhibition of contractions. How it is done: A. Antagonistic activity to the contracturant effect of prostaglandin E2
The antagonistic effect of the test compounds to the contracturant activity of prostaglandin E2 was determined by the method of Magnus wherein a portion of the colon adjacent to the caecum was removed from a rat and was washed with a Krebs solution at 37° C. The colon was then suspended in a bath of oxygenated Krebs liquid kept at 37° C and the contactions of the organ were registered with a collector attached to a Sanborn polygraph. The organ was first standarized with prostaglandin E2 to determine the concentration necessary to obtain a significant contraction (5 to 10 ng/ml). The antagonistic product was added to the bath 30 seconds before the standard dose of PGE2 and the intensity of the contraction was measured. The concentration of product which inhibited by 50% the contractions provoked by PGE2 was determined by the straight line effect-log of the dose and the CI50 is reported in Table I.

The test system of the next assay is mice. Put plainly: Analgesic activity -- stretching provoked by acetic acid (Koster et al). Type of assay: in vivo. As to conditions: Mus musculus, 0.25 h, oral, one half hour before intraperitoneal acetic acid, 15 minute observation, dose reducing stretchings by 50%, read-out: DA50 (the source's name). How it is done:
C. Analgesic Activity -- stretching provoked by acetic acid
The test procedure was that of Koster et al wherein an interitoneal injection of aqueous acetic acid in a concentration of 1% at a dose of 100 mg/kg caused in mice repeated movements of strectching and twisting which can persist for more than 6 hours. Analgesics prevent or lessen the syndrome. The test products were orally administered one half hour before the acetic acid injection and the mice were fasted from the day before the tests. The stretching were counted for each mouse during a 15 minute observation period beginning right after the acetic acid injection and the analgesic affect was expressed as a percentage of protection with respect to the controls.

Assay [1] relates to prostaglandin synthetases of lungs of guinea pigs. Nature of the assay: Inhibitory effect against biosynthesis of prostaglandins from arachidonic acid (Vane). Conditions: guinea pig lung homogenate supernatant, arachidonic acid 10 μg, 30 minutes at 37° C; read-out on isolated rat colon; read-out: CI50 (the source's name). The class given is biochemical. An excerpt:
D. Inhibitory effect against biosynthesis of prostaglandins
Synthesis of prostaglandins starting with arachidonic acid by means of prostaglandin synthetases of lungs of guinea pigs
This test used the procedure of Vane [Nature New-Biology, Vo. 231 (1971), p. 232-235] wherein the lungs of adult guinea pigs (two per series) were rapidly removed and washed with a modified, iced Bucher medium. The lung tissue was homogenized in a Turrax grinder in a minute and the homogenate was centrifuged for 20 minutes to 1200 g. The supernatant was used as a preparation of prostaglandin synthetases.
A solution of arachidonic acid in ethanol at a concentration of 10 mg/ml was diluted with a 0.2% aqueous sodium carbonate solution and was then diluted further with a modified Bucher medium to obtain a final acid concentration of 200 μg/ml. The biosynthesis inhibitors are put into aqueous on dilute alcohol (20% maximum) solutions. Tubes were prepared containing 1 ml of the prostaglandin synthetases preparation, 10 μg of arachidonic acid and 0.1 ml of inhibiting solution or, for the controls, an equal volume of water or dilute alcohol. The tubes were incubated with stirring for 30 minutes at 37° C in aerobic conditions and each test consisted of a tube containing a biosynthesis inhibitor, one biosynthesis control with incubated arachidonic acid and one control with non-incubated arachidonic acid. The latter control permitted a evaluation of amount of natural prostaglandins present in the ground lung and the results obtained with this control must therefore be taken away from the control of biosynthesis and from all the tests. The reactions are stopped by immersion in boiling water until the proteins are coagulated. The dosage of "prostaglandin like" activity was effected biologically on the isolated rat colon suspended in Krebs liquid, mixed to augment the specificity, with antagonists to other contracturant mediators susceptible to interfere. The antagonists were mepyramine, scopolamine, methysergide, phenoxybenzamine and propanolol.
A comparison of the results registered in the presence or absence of a test product permitted the calculation of the percentage of biosynthesis inhibition. The CI50 dose which inhibited by 50% the biosynthesis activity was graphically obtained by straight line representing the percent of inhibition with reference to the incubated controls against the log of the concentration in μg/ml and the results are reported in Table IV.

Structures are written as SMILES. Converted amounts (≈) assume the structure as drawn.

In the case of `CCCCC[C@H](O)/C=C/[C@H]1CC[C@@H](O)[C@@H]1C(=O)OCC` (relative stereo) [A], in the assay on guinea pig ileon, the minimal effective concentration is 20 µg/mL. For the same compound, the “CI50 against PGE2” value in the assay on prostaglandin E2 stood at 20 µg/mL (≈ 70.3 µM). In the case of `CCCCC[C@H](O)/C=C/[C@H]1CC[C@H](O)[C@@H]1C(=O)OCC` (relative stereo) [B], the minimal effective concentration with guinea pig ileon is 20 µg/mL. Also, the ED50 in the assay on mice was 100 mg/kg. Also, the IC50 in assay [1] is 376 µM. Take `CCCCCCCCCOC(=O)[C@H]1[C@@H](O)CC[C@@H]1/C=C/[C@@H](O)CCCCC` (relative stereo) [D]: the minimal effective concentration in the assay on guinea pig ileon is 10 µg/mL. Besides, the IC50 in assay [1] was 523 µM. Take `CCCCC[C@@H](/C=C/[C@H]1CC[C@H](O)[C@@H]1C(=O)OCC)OC1CCCCO1` (relative stereo) [F]: the minimal effective concentration with guinea pig ileon was determined as 20 µg/mL. Moreover, the “CI50 against PGE2” value in the assay with prostaglandin E2 was 20 µg/mL (≈ 54.3 µM). Moreover, the ED50 in the assay on mice was roughly 100 mg/kg. Moreover, the IC50 in assay [1] is 54 µM. As to `CCCCC[C@@H](/C=C/[C@H]1CC[C@@H](O)[C@@H]1C(=O)OCC)OC1CCCCO1` (relative stereo) [G], the minimal effective concentration in the assay on guinea pig ileon is 20 µg/mL. Further, the “CI50 against PGE2” value with prostaglandin E2 came out at 20 µg/mL (≈ 54.3 µM). The ED50 in the assay on mice is roughly 100 mg/kg. Further, the IC50 in assay [1] turned out to be 204 µM.

Regarding `CCCCC[C@@H](CC[C@H]1CC[C@H](O)[C@@H]1C(=O)OCC)OC1CCCCO1` (relative stereo) [H], in the assay on guinea pig ileon, the minimal effective concentration was found to be 10 µg/mL. As for `CCCCC[C@@H](/C=C/[C@H]1CC[C@H](O)[C@@H]1C(=O)OC)OC1CCCCO1` (relative stereo) [I], the minimal effective concentration with guinea pig ileon came out at 5 µg/mL.

For the compound `CCCCC[C@@H](/C=C/[C@H]1CC[C@H](O)[C@@H]1C(=O)OCCC)OC1CCCCO1` (relative stereo) [J], the minimal effective concentration in the assay on guinea pig ileon is 10 µg/mL.

Take `CCCCC[C@@H](CC[C@H]1CC[C@@H](O)[C@@H]1C(=O)OCC)OC1CCCCO1` (relative stereo) [K]: the minimal effective concentration with guinea pig ileon is 5 µg/mL. For `CCCCC[C@@H](/C=C/[C@H]1CC[C@@H](O)[C@@H]1C(=O)OC)OC1CCCCO1` (relative stereo) [L], the minimal effective concentration with guinea pig ileon was 5 µg/mL. Regarding `CCCCC[C@@H](/C=C/[C@H]1CC[C@@H](O)[C@@H]1C(=O)OCCC)OC1CCCCO1` (relative stereo) [M], the minimal effective concentration in the assay with guinea pig ileon is 5 µg/mL. For the same compound, in assay [1], the IC50 is 652 µM.

Regarding `C#C[C@@](O)(/C=C/[C@H]1CC[C@H](O)[C@@H]1C(=O)OCC)CCCCC` (relative stereo) [N], the minimal effective concentration with guinea pig ileon was 5 µg/mL. Regarding `C#C[C@@](/C=C/[C@H]1CC[C@H](O)[C@@H]1C(=O)OCC)(CCCCC)OC1CCCCO1` (relative stereo) [O], the IC50 in assay [1] amounted to 229 µM. In the case of `C#C[C@@](/C=C/[C@H]1CC[C@@H](O)[C@@H]1C(=O)OCC)(CCCCC)OC1CCCCO1` (relative stereo) [P], the minimal effective concentration with guinea pig ileon came out at 5 µg/mL. The ED50 in the assay with mice was roughly 100 mg/kg. The IC50 in assay [1] was 382 µM. Consider `C#C[C@@](/C=C/[C@H]1CC[C@H](O)[C@@H]1C(=O)OCC)(CCCCC)OC1CCCCO1` (relative stereo) [Product O, Ethyl (1RS, 2SR, 5RS, 3'SR) (1'E) 2-hydroxy-5-(3'-α-tetrahydropyranyloxy-3'-ethynyl-1'-octenyl)-cyclopentanecarboxylate], for which, in the assay with guinea pig ileon, the minimal effective concentration was 10 µg/mL.

As for `CCCCC[C@@H](/C=C/[C@H]1CC[C@@H](O)[C@@H]1C(=O)CCC)OC1CCCCO1` (relative stereo) [Q], the minimal effective concentration with guinea pig ileon is 10 µg/mL. With `CCCCC[C@@H](/C=C/[C@H]1CC[C@@H](O)[C@H]1C(=O)OCC)OC1CCCCO1` (relative stereo) [R], in assay [1], the IC50 was determined as 542 µM. Take `CCCCC[C@@H](/C=C/[C@H]1CC[C@H](O)[C@@H]1C(=O)CCC)OC1CCCCO1` (relative stereo) [S]: the IC50 in assay [1] was determined as 628 µM. For `CCCCCC(C)(O)/C=C/[C@H]1CC[C@@H](O)[C@@H]1C(=O)OCC` (some centres unmarked) [C], the minimal effective concentration in the assay with guinea pig ileon was determined as 1 µg/mL. Moreover, the IC50 in assay [1] worked out at 503 µM. The like results for `CCCCCC(C)(O)/C=C/[C@H]1CC[C@H](O)[C@@H]1C(=O)OCC` (some centres unmarked) [E] were, in that order, 5 µg/mL and 604 µM.

(Values after US4109009A, “Analgesic, relaxant, and anti-inflammatory cyclopentanol derivatives” (Roussel Uclaf, priority 1975, dated 1978).)
